{"source": "the NIST ThermoML archive (doi:10.1007/s10765-011-1149-x)", "key": {"[1]": {"details": "101 kPa, Liquid, Vibrating tube method"}, "[2]": {"test": "xn = mol fraction of the nth substance listed", "details": "101 kPa, Liquid, Vibrating tube method, x2 = 0"}}, "note": "± gives the expanded uncertainty stated by the source.", "data": [{"compound": "Cc1cc(C)nc(C)c1", "note": "[2,4,6-trimethylpyridine]", "values": [{"measurement": "mass density", "setting": "[1]; 276.15 K", "value": "928.45 ± 0.23", "unit": "kg/m3"}, {"measurement": "mass density", "setting": "[1]; 277.15 K", "value": "927.61 ± 0.23", "unit": "kg/m3"}, {"measurement": "mass density", "setting": "[1]; 283.15 K", "value": "922.54 ± 0.23", "unit": "kg/m3"}, {"measurement": "mass density", "setting": "[1]; 288.15 K", "value": "918.32 ± 0.24", "unit": "kg/m3"}, {"measurement": "mass density", "setting": "[1]; 293.14 K", "value": "914.08 ± 0.24", "unit": "kg/m3"}, {"measurement": "mass density", "setting": "[1]; 298.15 K", "value": "909.84 ± 0.24", "unit": "kg/m3"}, {"measurement": "mass density", "setting": "[1]; 303.15 K", "value": "905.58 ± 0.24", "unit": "kg/m3"}, {"measurement": "mass density", "setting": "[1]; 308.15 K", "value": "901.31 ± 0.24", "unit": "kg/m3"}, {"measurement": "mass density", "setting": "[1]; 313.15 K", "value": "897.03 ± 0.24", "unit": "kg/m3"}]}, {"compound": "CO", "note": "[methanol] + Cc1cc(C)nc(C)c1", "values": [{"measurement": "mass density", "setting": "[2]; 276.15 K", "value": "807.18 ± 0.15", "unit": "kg/m3"}, {"measurement": "mass density", "setting": "[2]; 277.15 K", "value": "806.25 ± 0.15", "unit": "kg/m3"}, {"measurement": "mass density", "setting": "[2]; 283.15 K", "value": "800.64 ± 0.15", "unit": "kg/m3"}, {"measurement": "mass density", "setting": "[2]; 288.15 K", "value": "795.96 ± 0.15", "unit": "kg/m3"}, {"measurement": "mass density", "setting": "[2]; 293.15 K", "value": "791.26 ± 0.15", "unit": "kg/m3"}, {"measurement": "mass density", "setting": "[2]; 298.15 K", "value": "786.55 ± 0.15", "unit": "kg/m3"}, {"measurement": "mass density", "setting": "[2]; 303.15 K", "value": "781.83 ± 0.15", "unit": "kg/m3"}, {"measurement": "mass density", "setting": "[2]; 308.15 K", "value": "777.08 ± 0.15", "unit": "kg/m3"}, {"measurement": "mass density", "setting": "[2]; 313.14 K", "value": "772.31 ± 0.16", "unit": "kg/m3"}]}, {"compound": "OCCO", "note": "[1,2-ethanediol]", "values": [{"measurement": "mass density", "setting": "[1]; 276.15 K", "value": "1125.17 ± 0.17", "unit": "kg/m3"}, {"measurement": "mass density", "setting": "[1]; 277.15 K", "value": "1124.48 ± 0.17", "unit": "kg/m3"}, {"measurement": "mass density", "setting": "[1]; 283.15 K", "value": "1120.32 ± 0.16", "unit": "kg/m3"}, {"measurement": "mass density", "setting": "[1]; 293.15 K", "value": "1113.37 ± 0.16", "unit": "kg/m3"}, {"measurement": "mass density", "setting": "[1]; 303.15 K", "value": "1106.36 ± 0.16", "unit": "kg/m3"}, {"measurement": "mass density", "setting": "[1]; 313.15 K", "value": "1099.3 ± 0.16", "unit": "kg/m3"}]}, {"compound": "OCCO", "note": "[1,2-ethanediol] + Cc1cc(C)nc(C)c1", "values": [{"measurement": "mass density", "setting": "[2]; 276.15 K", "value": "1125.17 ± 0.17", "unit": "kg/m3"}, {"measurement": "mass density", "setting": "[2]; 277.15 K", "value": "1124.48 ± 0.17", "unit": "kg/m3"}, {"measurement": "mass density", "setting": "[2]; 283.15 K", "value": "1120.32 ± 0.16", "unit": "kg/m3"}, {"measurement": "mass density", "setting": "[2]; 293.15 K", "value": "1113.37 ± 0.16", "unit": "kg/m3"}, {"measurement": "mass density", "setting": "[2]; 303.15 K", "value": "1106.36 ± 0.16", "unit": "kg/m3"}, {"measurement": "mass density", "setting": "[2]; 313.15 K", "value": "1099.3 ± 0.16", "unit": "kg/m3"}]}, {"compound": "CO", "note": "[methanol]", "values": [{"measurement": "mass density", "setting": "[1]; 276.15 K", "value": "807.18 ± 0.15", "unit": "kg/m3"}, {"measurement": "mass density", "setting": "[1]; 277.15 K", "value": "806.25 ± 0.15", "unit": "kg/m3"}, {"measurement": "mass density", "setting": "[1]; 283.15 K", "value": "800.64 ± 0.15", "unit": "kg/m3"}, {"measurement": "mass density", "setting": "[1]; 288.15 K", "value": "795.96 ± 0.15", "unit": "kg/m3"}, {"measurement": "mass density", "setting": "[1]; 293.15 K", "value": "791.26 ± 0.15", "unit": "kg/m3"}, {"measurement": "mass density", "setting": "[1]; 298.15 K", "value": "786.55 ± 0.15", "unit": "kg/m3"}, {"measurement": "mass density", "setting": "[1]; 303.15 K", "value": "781.83 ± 0.15", "unit": "kg/m3"}, {"measurement": "mass density", "setting": "[1]; 308.15 K", "value": "777.08 ± 0.15", "unit": "kg/m3"}, {"measurement": "mass density", "setting": "[1]; 313.14 K", "value": "772.31 ± 0.16", "unit": "kg/m3"}]}]}
